Data taken from PMC6956804, “Potent antibacterial activity of MSI-1 derived from the magainin 2 peptide against drug-resistant bacteria” (Theranostics, 2020).
In brackets after ≈: the same amount, converted by molar mass. Peptide text beside a SMILES is read from it.

Legend:
murine spleen cells = experiment: Cytotoxicity, MTT; format: cell-based; conditions: 48 h
Procedure: The cytotoxicity of peptides towards murine spleen cells (obtained from healthy murine with aseptic technique) and other eukaryotic cells (HaCaT, GES-1, human L02, B16F10, A549, H460) were determined by routine MTT method. Cells were incubated with serially diluted peptides (final concentrations: 1.563, 3.125, 6.25, 12.5, 25, 50, 100 and 200 μM) for 48 h.

C57BL/6 mice = experiment: Acute toxicity in mice; format: in vivo; conditions: intraperitoneal
Procedure: C57BL/6 mice (n=6/group) were intraperitoneally injected with MSI-1 (0, 10, 20, 40, 80 and 100 mg/kg/body weight, respectively). Animals were inspected for adverse effects for 30 min, and survival was monitored for 12 h thereafter. The toxicity severity was classified as Malik U et al previously described.

[1] = tested on: E. coli, Penicillin-, Imipenem- and Ceftazidime- resistant clinical isolates; format: cell-based
Procedure: (§1) Bacterial strains were purchased from the American Type Culture Collection (ATCC). All clinical strains were isolated from human clinical specimens by the Medical Laboratory Center of Zhongda Hospital (Nanjing, Jiangsu, China). Ndm-1, tem-1, ctx-m-1, shv-1 -carrying bacteria were constructed as previously described. The recombinant bacteria carrying drug-resistant genes were prepared in LB nutrient and induced by IPTG (1 mM) for 4 h before text. Other bacterial strains were respectively prepared in MHB and Columbia Blood Agar Base.
(§2) A standard micro-broth serial dilution assay was used to measure MIC of peptides. MIC was obtained by a microplate reader at 600 nm. MBC was determined as previously described.

Helicobacterpylori SS1 = format: cell-based; conditions: Helicobacterpylori SS1
Procedure: as §1, §2

[2] = tested on: S. epidermidis, Amoxicillin-, Cephalexin- and Levofloxacin- resistant clinical isolates; format: cell-based
Procedure: as §1, §2

[3] = tested on: P. aeruginosa, Penicillin-, Imipenem- and Ceftazidime- resistant clinical isolates; format: cell-based
Procedure: as §1, §2

[4] = tested on: K. pneumonia, Penicillin-, Imipenem- and Ceftazidime- resistant clinical isolates; format: cell-based
Procedure: as §1, §2

[5] = tested on: S. pyogenes, Penicillin-, Erythromycin- and Levofloxacin- resistant clinical isolates; format: cell-based
Procedure: as §1, §2

[6] = tested on: E. coli BL21(DE3)-NDM-1 (ndm-1-carrying recombinant E. coli); format: cell-based
Procedure: as §1, §2

[7] = tested on: S. aureus, Amoxicillin-, Cephalexin- and Levofloxacin- resistant clinical isolates; format: cell-based
Procedure: as §1, §2

[8] = tested on: S. pneumoniae, Amoxicillin-, Cephalexin- and Levofloxacin- resistant clinical isolates; format: cell-based
Procedure: as §1, §2

[9] = tested on: MRSA, Methicillin-resistant clinical isolates; format: cell-based, Staphylococcus aureus
Procedure: as §1, §2

For `CC[C@H](C)[C@H](NC(=O)CN)C(=O)N[C@@H](Cc1c[nH]c2ccccc12)C(=O)N[C@@H](CCCCN)C(=O)N[C@@H](Cc1ccccc1)C(=O)N[C@@H](CC(C)C)C(=O)N[C@@H](CCCCN)C(=O)N[C@@H](CCCCN)C(=O)N[C@@H](C)C(=O)N[C@@H](CCCCN)C(=O)N[C@@H](CCCCN)C(=O)N[C@@H](Cc1ccccc1)C(=O)N[C@@H](Cc1c[nH]c2ccccc12)C(N)=O` [MSI-3] (H-GIWKFLKKAKKFW-NH2), the “effect on the survival of mouse spleen cells compared with the parent peptide” value (murine spleen cells) was “significantly higher”, the deaths (C57BL/6 mice; 100 mg/kg) was “some of the mice in the MSI-3-treated group died” and the “adverse effects at approximately 5 min post injection” value (C57BL/6 mice; dose of peptide above 40 mg/kg, n=6/group) was “displayed narrowing of the eyes, one mouse was crouching and cuddling, and the other mouse showed convulsions”.
With `CC[C@H](C)[C@H](NC(=O)CN)C(=O)NCC(=O)N[C@@H](C)C(=O)N[C@H](C(=O)N[C@@H](CC(C)C)C(=O)N[C@@H](CCCCN)C(=O)N[C@H](C(=O)N[C@@H](CC(C)C)C(=O)N[C@H](C(=O)N[C@H](C(=O)NCC(=O)N[C@@H](CC(C)C)C(=O)N1CCC[C@H]1C(=O)N[C@@H](C)C(=O)N[C@@H](CC(C)C)C(=O)N[C@H](C(=O)N[C@@H](CO)C(=O)N[C@@H](Cc1c[nH]c2ccccc12)C(=O)N[C@H](C(=O)N[C@@H](CCCCN)C(=O)N[C@@H](CCCNC(=N)N)C(=O)N[C@@H](CCCCN)C(=O)N[C@@H](CCCNC(=N)N)C(=O)N[C@@H](CCC(N)=O)C(=O)N[C@@H](CCC(N)=O)C(N)=O)[C@@H](C)CC)[C@@H](C)CC)[C@@H](C)O)[C@@H](C)O)C(C)C)C(C)C` [Melittin] the MBC [1] was 8 µg/mL (≈ 2.81 µM), the MIC [1] was 4 µg/mL (≈ 1.41 µM) and the MBC (Helicobacterpylori SS1) was 16 µg/mL (≈ 5.62 µM). The MIC (Helicobacterpylori SS1) was 8 µg/mL (≈ 2.81 µM), the MBC [2] was 16 µg/mL (≈ 5.62 µM) and the MIC [2] was 4 µg/mL (≈ 1.41 µM). For the same compound, the MBC [3] was 8 µg/mL (≈ 2.81 µM), the MIC [3] was 4 µg/mL (≈ 1.41 µM) and the MBC [4] was 16 µg/mL (≈ 5.62 µM). The MIC [4] was 8 µg/mL (≈ 2.81 µM), the MBC [5] was 16 µg/mL (≈ 5.62 µM) and the MIC [5] was 8 µg/mL (≈ 2.81 µM). The MBC [6] was 8 µg/mL (≈ 2.81 µM), the MIC [6] was 4 µg/mL (≈ 1.41 µM) and the MBC [7] was 32 µg/mL (≈ 11.2 µM). For the same compound, the MIC [7] was 8 µg/mL (≈ 2.81 µM), the MBC [8] was 16 µg/mL (≈ 5.62 µM) and the MIC [8] was 8 µg/mL (≈ 2.81 µM). The MBC [9] was 8 µg/mL (≈ 2.81 µM) and the MIC [9] was 4 µg/mL (≈ 1.41 µM).
